Experimental data taken from PubChem BioAssay (NCI).
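96-well plates; 48 h exposure; 5 concentrations. Endpoints by linear interpolation between flanking doses. Not reached: highest tested concentration assigned. At the TGI there is no net growth.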

Assays:
Assay in all cases: NCI tumour cell line growth inhibition, 48 h
HOP-92 NSCLC = test system: HOP-92 NSCLC
NCI-H522 lung = test system: NCI-H522 lung
CAKI-1 renal = test system: CAKI-1 renal
HCT-15 colon = test system: HCT-15 colon
K-562 leukemia = test system: K-562 leukemia
MOLT-4 leukemia = test system: MOLT-4 leukemia
EKVX NSCLC = test system: EKVX NSCLC
MDA-MB-231 breast = test system: MDA-MB-231 breast
MDA-N = test system: MDA-N
UACC-62 melanoma = test system: UACC-62 melanoma
SNB-19 CNS = test system: SNB-19 CNS
T-47D breast = test system: T-47D breast
MDA-MB-435 = test system: MDA-MB-435
OVCAR-8 ovarian = test system: OVCAR-8 ovarian
RPMI-8226 leukemia = test system: RPMI-8226 leukemia
IGROV1 ovarian = test system: IGROV1 ovarian
SN12C renal = test system: SN12C renal
NCI-H226 lung = test system: NCI-H226 lung
CCRF-CEM leukemia = test system: CCRF-CEM leukemia
HL-60(TB) leukemia = test system: HL-60(TB) leukemia

SMILES | TGI (HOP-92 NSCLC) [µM] | TGI (NCI-H522 lung) [µM] | TGI (CAKI-1 renal) [µM] | TGI (HCT-15 colon) [µM] | TGI (K-562 leukemia) [µM] | TGI (MOLT-4 leukemia) [µM] | TGI (EKVX NSCLC) [µM] | TGI (MDA-MB-231 breast) [µM] | TGI (MDA-N) [µM] | TGI (UACC-62 melanoma) [µM] | TGI (SNB-19 CNS) [µM] | TGI (T-47D breast) [µM] | TGI (MDA-MB-435) [µM] | TGI (OVCAR-8 ovarian) [µM] | TGI (RPMI-8226 leukemia) [µM] | TGI (IGROV1 ovarian) [µM] | TGI (SN12C renal) [µM] | TGI (NCI-H226 lung) [µM] | TGI (CCRF-CEM leukemia) [µM] | TGI (HL-60(TB) leukemia) [µM]
C=C[C@@]1(C)CC[C@@H]2[C@@]3(C1)O[C@H]3CC1[C@](C)(C(=O)OC)CCC[C@@]12C (some centres not stated) | 33.8 | 31.6 | > 100 | 35.8 | > 100 | 42.2 | 38.6 | 58.1 | 56.8 | > 100 | 30.3 | 55.9 | > 100 | 40.9 | 65.6 | 58.4 |  |  |  | 
O=C1Nc2ccccc2C1=Nc1cccc2ncccc12 | > 100 | > 100 | > 100 | > 100 | > 100 | > 100 | 85.6 | > 100 | > 100 | > 100 | > 100 | > 100 | 42.3 | > 100 | > 100 | > 100 | > 100 | > 100 |  | 
COC(=O)C1=C(C)C(=O)[C@]23C(CCCC[C@H]12)C(=O)[C@H](C(=O)OC)C3C (some centres not stated) | > 100 | > 100 | > 100 | > 100 | > 100 | > 100 | > 100 | > 100 | > 100 | > 100 | > 100 | > 100 | > 100 | > 100 |  | > 100 | > 100 | > 100 | > 100 | > 100
CCOC(=O)c1cc(=O)c2ccnc3c2n1CCS3 | > 100 | 74.4 | > 100 | > 100 |  | > 100 | > 100 | > 100 | > 100 | > 100 | > 100 | > 100 | > 100 | > 100 |  | > 100 | > 100 | > 100 | > 100 | > 100
CCc1cc2c(c3c1CCC3=O)CC1(Cc3ccc(C)cc3C1)C2 (configuration not stated) | 62.8 | > 100 |  | > 100 | > 100 | 68.7 | > 100 | > 100 | > 100 | > 100 |  | > 100 | > 100 | > 100 | 94.8 | > 100 | > 100 | 99.8 | 34.7 | 41
Cc1c(C)c(C)c(-n2c(=O)n(C)c(=O)n2-n2c(=O)n(C)c(=O)n2-c2c(C)c(C)c(C)c(C)c2C)c(C)c1C | > 100 | > 100 | > 100 | > 100 | > 100 | > 100 | > 100 | > 100 | > 100 | > 100 | > 100 | > 100 | > 100 | > 100 | > 100 | > 100 | > 100 | > 100 |  | 68.7
CN(CCNC(=O)c1nn(-c2ccccc2)c2c1Cc1ccccc1-2)CCNC(=O)c1nn(-c2ccccc2)c2c1Cc1ccccc1-2 | 3.01 | 3.15 | 7.28 | 3.67 | 6.59 | 11 | 9.65 | 3.39 | 3.16 | 3.1 | 4.43 | > 22.5 | 3.17 | 3.17 | 14.1 | 3.31 | 3.61 |  | 4.68 | 2.91
CCN1CCC(O)(c2ccc(Oc3ccccc3)cc2)C(C(=O)c2ccc(Oc3ccccc3)cc2)C1 (configuration not stated) | 22.3 | 43.9 | 31.2 | 25.7 | > 100 | 32.1 | 36.9 | 30.2 | 26.7 | 25.9 | 32.6 | 28.4 | 26.2 | 38.6 | 5.63 | 33 | 29.5 |  | 25.5 | 14.1
CCOC(=O)c1nnsc1NC(=O)Nc1ccc(Cc2ccc(NC(=O)Nc3snnc3C(=O)OCC)cc2)cc1 |  |  | > 100 | > 100 | > 100 | > 100 | > 100 | 95.6 | > 100 | > 100 | > 100 | > 100 | > 100 | 76.6 | > 100 | > 100 | > 100 | > 100 | > 100 | 
CC(Cc1ccccc1)Nc1ncnc2c1ncn2C1OC(CO)CC1O (configuration not stated) | > 100 | > 100 | > 100 | > 100 | > 100 | > 100 | > 100 | > 100 | > 100 | > 100 | > 100 | > 100 | > 100 | > 100 | > 100 | > 100 | > 100 | > 100 | > 100 | 
CN1CCN(C(=S)N(C(=O)c2ccc(Cl)cc2)c2ccccc2)CC1 | > 100 | > 100 |  | > 100 | > 100 | > 100 |  | > 100 | > 100 | > 100 | > 100 | > 100 | > 100 | > 100 | > 100 | > 100 | > 100 | > 100 |  | > 100
Cc1cc(-c2cccc3ccccc23)c(C#N)c(=S)n1C1OC(CO)C(O)C(O)C1O (configuration not stated) |  |  | > 100 | > 100 |  | > 100 | > 100 | > 100 | > 100 | > 100 |  | > 100 | > 100 | > 100 |  | > 100 | > 100 | > 100 | > 100 | > 100
Cc1ccc(S(=O)(=O)N2CCC(=O)c3cc(Br)ccc32)cc1 | 98.9 | > 55.6 | > 100 | > 100 | > 30.9 | > 26.6 | 96.3 | > 54.5 | 13.3 | 18.3 | 99.4 | > 100 | 4.98 | > 100 | 76.4 | > 100 | > 100 | > 100 |  | 
